Results taken from ChEMBL document CHEMBL1126778, “Adenosine A1 antagonists. 3. Structure-activity relationships on amelioration against scopolamine- or N6-((R)-phenylisopropyl)adenosine-induced cognitive disturbance” (J Med Chem, 1993).

How the values were obtained:
[1] = target: T1, Adenosine receptor A1 (Bos taurus, UniProt P28190); test: Binding affinity towards Adenosine A1 receptor of bovine brain at 10e-5 M with [125I]-N6-aminobenzyladenosine
T1 sequence (P28190 whole entry): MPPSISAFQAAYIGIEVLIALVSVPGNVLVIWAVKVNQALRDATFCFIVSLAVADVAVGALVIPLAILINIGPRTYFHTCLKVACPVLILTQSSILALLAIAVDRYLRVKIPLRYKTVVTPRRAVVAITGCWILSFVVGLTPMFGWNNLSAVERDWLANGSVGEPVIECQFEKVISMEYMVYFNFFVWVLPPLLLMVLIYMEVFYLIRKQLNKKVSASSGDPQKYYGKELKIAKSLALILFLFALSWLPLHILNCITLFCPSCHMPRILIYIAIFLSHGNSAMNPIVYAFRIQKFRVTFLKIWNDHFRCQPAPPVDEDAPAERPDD

[2] = target: Adenosine A2 receptor (Homo sapiens, UniProt P29275+P29274); test: Binding affinity towards Adenosine A2 receptor of human platelets with [125I]-N6-aminobenzyladenosine
[3] = test system: Mus musculus; test: Acquisition time in (R)-PIA) induced avoidance test (performed in mice) for antagonistic activity after peroral administration of 0.08 mg/kg; type: functional; conditions: route oral
[4] = test system: Mus musculus; test: Acquisition time in (R)-PIA) induced avoidance test (performed in mice) for antagonistic activity after p.o. administration of 0.31 mg/kg; type: functional; conditions: route oral
[5] = test system: Mus musculus; test: Acquisition time in (R)-PIA) induced avoidance test (performed in mice) for antagonistic activity after p.o. administration of 1.25 mg/kg; type: functional; conditions: route oral
[6] = test system: Mus musculus; test: Retention time in (R)-PIA) induced avoidance test (performed in mice) for antagonistic activity after p.o. administration of 1.25 mg/kg; type: functional, organism-based; set-up: dose 1.25 mg/kg
[7] = test system: Mus musculus; test: Retention time in (R)-PIA) induced avoidance test (performed in mice) for antagonistic activity after peroral administration of 5 mg/kg; type: functional, organism-based; set-up: dose 5 mg/kg
[8] = test system: Mus musculus; test: Retention time in (R)-PIA) induced avoidance test (performed in mice) for antagonistic activity after peroral administration of 0.08 mg/kg; type: functional, organism-based; set-up: dose 0.08 mg/kg
[9] = test system: Mus musculus; test: Retention time in (R)-PIA) induced avoidance test (performed in mice) for antagonistic activity after peroral administration of 0.31 mg/kg; type: functional, organism-based; set-up: dose 0.31 mg/kg
[10] = test system: Rattus norvegicus; test: Acquisition time in Scopolamine induced avoidance test (performed in rat) for antagonistic activity after peroral administration of 1.25 mg/kg; type: functional; conditions: route oral
[11] = test system: Rattus norvegicus; test: Acquisition time in Scopolamine induced avoidance test (performed in rat) for antagonistic activity after peroral administration of 20 mg/kg; type: functional; conditions: route oral
[12] = test system: Rattus norvegicus; test: Acquisition time in Scopolamine induced avoidance test (performed in rat) for antagonistic activity after p.o. administration of 0.08 mg/kg; type: functional; conditions: route oral
[13] = test system: Rattus norvegicus; test: Acquisition time in Scopolamine induced avoidance test (performed in rat) for antagonistic activity after p.o. administration of 0.31 mg/kg; type: functional; conditions: route oral
[14] = test system: Rattus norvegicus; test: Acquisition time in Scopolamine induced avoidance test (performed in rat) for antagonistic activity after p.o. administration of 5 mg/kg; type: functional; conditions: route oral
[15] = test system: Rattus norvegicus; test: Retention time in Scopolamine induced avoidance test (performed in […]) for antagonistic activity after peroral administration of 5 mg/kg; type: functional, organism-based; set-up: dose 5 mg/kg
[16] = test system: Rattus norvegicus; test: Retention time in Scopolamine induced avoidance test (performed in rat) for antagonistic activity after p.o. administration of 0.08 mg/kg; type: functional, organism-based; set-up: dose 0.08 mg/kg
[17] = test system: Rattus norvegicus; test: Retention time in Scopolamine induced avoidance test (performed in rat) for antagonistic activity after p.o. administration of 0.31 mg/kg; type: functional, organism-based; set-up: dose 0.31 mg/kg
[18] = test system: Rattus norvegicus; test: Retention time in Scopolamine induced avoidance test (performed in rat) for antagonistic activity after peroral administration of 1.25 mg/kg; type: functional, organism-based; set-up: dose 1.25 mg/kg
[19] = test system: Rattus norvegicus; test: Retention time in Scopolamine induced avoidance test (performed in rat) for antagonistic activity after peroral administration of 20 mg/kg; type: functional, organism-based; set-up: dose 20 mg/kg
[20] = test system: Mus musculus; test: Acquisition time in (R)-PIA) induced avoidance test (performed in mice) for antagonistic activity after peroral administration of 5 mg/kg; type: functional; conditions: route oral
[21] = test system: Mus musculus; test: Retention time in (R)-PIA) induced avoidance test (performed in mice) for antagonistic activity after peroral administration of 0.02 mg/kg
[22] = test system: Mus musculus; test: Acquisition time in (R)-PIA) induced avoidance test (performed in mice) for antagonistic activity after peroral administration of 0.02 mg/kg; conditions: route oral

## CCCn1c(=O)c2nc(C3CCCC3)[nH]c2n(CCc2ccc(NC(=O)C(C)C)cc2)c1=O
[1]
  Ki: 16 nM
[2]
  Ki: > 100000 nM
[3]
  Acquisition time: 16 s
[4]
  Acquisition time: 29.3 s
[5]
  Acquisition time: 33.3 s
[6]
  Retention time: 171 s
[7]
  Retention time: 94.7 s
[8]
  Retention time: 32.9 s
[9]
  Retention time: 88.6 s
[10]
  Acquisition time: 6.6 s
[11]
  Acquisition time: 9 s
[12]
  Acquisition time: 10.1 s
[13]
  Acquisition time: 10.1 s
[14]
  Acquisition time: 11.9 s
[15]
  Retention time: 20 s
[16]
  Retention time: 10.7 s
[17]
  Retention time: 18.6 s
[18]
  Retention time: 19.3 s
[19]
  Retention time: 65.4 s
[20]
  Acquisition time: 34.4 s
[21]
  Retention time: 9.4 s
[22]
  Acquisition time: 6 s
